Patent US7417048B2, “Aryl-substituted derivatives of cycloalkyl and branched chain alkyl carboxylic acids useful as antinociceptive drugs for peripheral targets” (priority 2003, dated 2008)

tested on: tongue of the test subject; experiment: Cold sensation threshold on tongue, impregnated filter paper; assay type: in vivo, human; conditions: filter paper 1 × 1 cm on tongue, 30 sec, presence or absence of cooling effect

In order of rising “Cold Sensation Threshold on Tongue” value:
1. Cc1ccc(NC(=O)C2CC(C)CCC2C(C)C)cc1O (centres unmarked) [N-(3′-hydroxy-4′-methylphenyl)-2-isopropyl-5-methylcyclohexanecarboxamide]  0.1 µg
2. Cc1ccc(NC(=O)C2CC(C)CCC2C(C)C)c(C)c1 (centres unmarked) [N-(2′,4′-dimethylphenyl)-2-isopropyl-5-methylcyclohexanecarboxamide]  0.1 µg
3. COc1ccc(NC(=O)C2CC(C)CCC2C(C)C)cc1 (centres unmarked) [N-(4′-methoxyphenyl)-2-isopropyl-5-methylcyclohexanecarboxamide]  0.1 µg
4. COc1ccc(NC(=O)C2(C(C)C)CCCCCC2)c(C)c1 [N-(4′-methoxy-2′-methylphenyl)-1-isopropylcycloheptanecarboxamide]  0.2 µg
5. CC1CCC(C(C)C)C(C(=O)Nc2ccc([N+](=O)[O-])cc2)C1 (centres unmarked) [N-(4′-nitrophenyl)-2-isopropyl-5-methylcyclohexanecarboxamide]  0.3 µg
6. CC1CCC(C(C)C)C(C(=O)Nc2ccccc2O)C1 (centres unmarked) [N-(2′-hydroxyphenyl)-2-isopropyl-5-methylcyclohexanecarboxamide]  0.5 µg
7. COc1ccc(NC(=O)C(C)(C(C)C)C(C)C)cc1 [N-(4′-methoxyphenyl)-2-isopropyl-2,3-dimethylbutyramide]  0.5 µg
8. CC1CCC(C(C)C)C(C(=O)Nc2ccc(F)cc2)C1 (centres unmarked) [N-(4′-fluorophenyl)-2-isopropyl-5-methylcyclohexanecarboxamide]  0.5 µg
9. COc1ccc(NC(=O)C2C3C=CC(C3)C2CC(C)C)c(OC)c1 (centres unmarked) [N-(2′,4′-dimethoxyphenyl)-3-isobutylbicyclo[2.2.1]hept-5-ene-2-carboxamide]  1 µg
10. Cc1ccc(NC(=O)C(C)(C(C)C)C(C)C)c(C)c1 [N-(2′,4′-dimethylphenyl)-2-isopropyl-2,3-dimethylbutyramide]  1 µg
11. CCCCC1C2C=CC(C2)C1C(=O)Nc1ccc(OC)cc1C (centres unmarked) [N-(2′-methyl-4′-methoxyphenyl)-3-n-butylbicyclo[2.2.1]hept-5-ene-2-carboxamide]  1 µg
12. Cc1ccc(NC(=O)C2(C(C)C)CCCCCC2)cc1O [N-(3′-hydroxy-4′-methylphenyl)-1-isopropylcycloheptanecarboxamide]  1 µg
13. CC1CCC(C(C)C)C(C(=O)Nc2ccc(O)cc2)C1 (centres unmarked) [N-(4′-hydroxyphenyl)-2-isopropyl-5-methylcyclohexanecarboxamide]  1 µg
14. COc1ccc(NC(=O)C2C3C=CC(C3)C2CC(C)C)c(C)c1 (centres unmarked) [N-(2′-methyl-4′-methoxyphenyl)-3-isobutylbicyclo[2.2.1]hept-5-ene-2-carboxamide]  1 µg
15. CC(=O)c1ccc(NC(=O)C2CC(C)CCC2C(C)C)cc1 (centres unmarked) [N-(4′-acetylphenyl)-2-isopropyl-5-methylcyclohexanecarboxamide]  2 µg
16. COc1ccc(NC(=O)C(C)(CC(C)C)C(C)C)cc1 (centres unmarked) [N-(4′-methoxyphenyl)-2-isopropyl-2,4-dimethylpentanamide]  2 µg
17. Cc1ccc(NC(=O)C(C)(C(C)C)C(C)C)cc1C [N-(3′,4′-dimethylphenyl)-2-isopropyl-2,3-dimethylbutyramide]  3 µg
18. COc1ccc(NC(=O)C2C3C=CC(C3)C2CC(C)C)cc1 (centres unmarked) [N-(4′-methoxyphenyl)-3-isobutylbicyclo[2.2.1]hept-5-ene-2-carboxamide]  4 µg
19. COc1ccc(NC(=O)C2(C(C)C)CCCCCC2)cc1OC [N-(3′,4′-dimethoxyphenyl)-1-isopropylcycloheptanecarboxamide]  5 µg
20. CCOC(=O)c1ccc(NC(=O)C2CC(C)CCC2C(C)C)cc1 (centres unmarked) [N-(4′-ethoxycarbonylphenyl)-2-isopropyl-5-methylcyclohexanecarboxamide]  5 µg
21. CCCCC1C2C=CC(C2)C1C(=O)Nc1ccc(OC)c(O)c1 (centres unmarked) [N-(3′-hydroxy-4′-methoxyphenyl)-3-n-butylbicyclo[2.2.1]hept-5-ene-2-carboxamide]  5 µg
22. Cc1ccc(C)c(NC(=O)C(C)(CC(C)C)C(C)C)c1 (centres unmarked) [N-(2′,5′-dimethylphenyl)-2-isopropyl-2,4-dimethylpentanamide]  5 µg
23. CC1CCC(C(C)C)C(C(=O)Nc2cccc3ccccc23)C1 (centres unmarked) [N-(1′-naphthyl)-2-isopropyl-5-methylcyclohexanecarboxamide]  6 µg
24. CCC1(C(=O)Nc2ccc(OC)cc2)CCCCCC1C (centres unmarked) [N-(4′-methoxyphenyl)-1-ethyl-2-methylcycloheptanecarboxamide]  6 µg
25. COc1ccc(NC(=O)C2CC3CCC2(C)C3(C)C)cc1 (centres unmarked) [N-(4′-methoxyphenyl)-1,7,7-trimethylbicyclo[2.2.1]heptane-2-carboxamide]  8 µg
26. COc1ccc(NC(=O)C2C3C=CC(C3)C2CC(C)C)cc1O (centres unmarked) [N-(3′-hydroxy-4′-methoxyphenyl)-3-isobutylbicyclo[2.2.1]hept-5-ene-2-carboxamide]  8 µg
27. CC1CCC(C(C)C)C(C(=O)Nc2ccc(Cl)cc2)C1 (centres unmarked) [N-(4′-chlorophenyl)-2-isopropyl-5-methylcyclohexanecarboxamide]  8 µg
28. CC(C)C1(C(=O)Nc2cccc(O)c2)CCCCCC1 [N-(3′-hydroxyphenyl)-1-isopropylcycloheptanecarboxamide]  10 µg
29. Cc1ccc(NC(=O)C2(C(C)C)CCCCCC2)cc1C [N-(3′,4′-dimethylphenyl)-1-isopropylcycloheptanecarboxamide]  15 µg
30. COc1ccc(NC(=O)C2C3CCC(C3)C2C(C)C)cc1 (centres unmarked) [N-(4′-methoxyphenyl)-3-isopropylbicyclo[2.2.1]heptane-2-carboxamide]  15 µg
31. Cc1ccc(NC(=O)C2(C(C)C)CCCCCC2)c(C)c1 [N-(2′,4′-dimethylphenyl)-1-isopropylcycloheptanecarboxamide]  15 µg
32. COc1ccc(NC(=O)C2C3CCC(C3)C2(C)C)cc1 (centres unmarked) [N-(4′-methoxyphenyl)-3,3-dimethylbicyclo[2.2.1]heptane-2-carboxamide]  20 µg
33. Cc1ccc(C)c(NC(=O)C2C3CCC(C3)C2(C)C)c1 (centres unmarked) [N-(2′,5′-dimethylphenyl)-3,3-dimethylbicyclo[2.2.1]heptane-2-carboxamide]  20 µg
34. CC1CCC(C(C)C)C(C(=O)NCc2ccccc2)C1 (centres unmarked) [N-phenylmethyl-2-isopropyl-5-methylcyclohexanecarboxamide]  20 µg
35. CC1CCC(C(C)C)C(C(=O)Nc2ccccc2)C1 (centres unmarked) [N-phenyl-2-isopropyl-5-methylcyclohexanecarboxamide]  20 µg
